Laboratory results as given in publication PMC5818615, “Use of HuH6 and other human-derived hepatoma lines for the detection of genotoxins: a new hope for laboratory animals?” (Archives of Toxicology, 2017).
Where two headings read alike, the source gives them in different places. Marks after values point to notes of the source that are not given here.

How the values were obtained:
[1] = test system: HepaRG cells; settings: ref Le Hegarat et al. [2014]; cited from earlier work
[2] = test system: p53 gene; experiment: Induction of p53 gene expression (RT-qPCR) in liver cell lines; type: cell-based, human; settings: 30 µM B(a)P for 24 h
Procedure: (§1) The expression of the p53 gene in the different cell lines was analyzed using real-time quantitative PCR (RT-qPCR) according to the description of Straser et al. ([2013]). The protein was quantified by Western blotting as described by Pezdirc et al. ([2013]).

[3] = test system: p53 protein; experiment: Induction of p53 protein expression (Western Blot) in liver cell lines; type: cell-based, human; parameters: key to P53 protein expression (Western Blot) Induced: No expression is indicated with −; background expression with +; induced expression with ++; highly induced expression with +++; settings: for P53 protein expression (Western Blot) Induced: 30 µM B(a)P for 24 h
Procedure: as §1

[4] = test system: primary human hepatocytes; settings: cited from earlier work
[5] = test system: HepaRG cells
Procedure: (§2) The SCGE experiments were conducted as described in an international guideline (Tice et al. [2000]). Reagents for the assays (lysis solution and alkaline electrophoresis buffer) and agarose-coated slides were prepared according to Collins and Dusinska ([2009]).
(§3) Briefly, cells were sub-cultured in 1.0 ml medium in 24–well tissue-culture plates (Sarstedt Inc., Newton, NC, USA). After 24 h, the media were changed and the cells exposed to different concentrations of the test compounds or to the solvent controls (PBS or DMSO). […] To terminate the treatment, the cells were washed twice with PBS (1.0 ml), trypsinized (100 µl T/E per well, 4 min) and then resuspended in 400 µl culture medium containing FBS. Subsequently, the suspensions were transferred to Eppendorf tubes and centrifuged (200g, 5 min). Cell pellets were resuspended in cold PBS.
(§4) In all experiments, acute toxic effects were determined with a CASY® Cell Counter and Analyzer System (Schärfe-System GmbH, Reutlingen, Germany) (Lindl et al. [2005]). SCGE assays were only performed when the viability of the cultures was ≥ 70% (Koppen et al. [2017]). Per experimental point, two cultures were set up in parallel and from each one slide with two separate gels (30,000 cells/gel) was prepared. After unwinding (40 min, pH > 13) and electrophoresis (30 min, 0.75 V/cm, ~ 300 mA, 4 °C, pH > 13), 50 cells were evaluated per gel (200 cells per experimental point). As an endpoint, we determined the tail intensities (“% DNA in tail”) with a computer-aided system Comet Assay IV (Perceptive Instruments, Bury St Edmunds, UK), which is at present the most widely used parameter (Collins et al. [2008]; Moller [2006]). For each gel, the median of the tail intensity was calculated.

[6] = test system: HuH7 cells
Procedure: as §2, §3, §4

[7] = test system: SK-Hep1 cells
Procedure: as §2, §3, §4

[8] = test system: HuH6 cells
Procedure: as §2, §3, §4

[9] = test system: human derived liver cell lines
Procedure: as §2, §3, §4

[10] = test system: HCC 1.2 cells
Procedure: as §2, §3, §4

[11] = test system: SNU-449 cells
Procedure: as §2, §3, §4

[12] = test system: WRL68 cells
Procedure: as §2, §3, §4

[13] = test system: SNU-398 cells
Procedure: as §2, §3, §4

[14] = test system: JHH6 cells
Procedure: as §2, §3, §4

[15] = test system: Hep3B cells
Procedure: as §2, §3, §4

[16] = test system: HepG2 cells
Procedure: as §2, §3, §4

[17] = test system: PLC/PRF cells
Procedure: as §2, §3, §4

Cc1ccc(N)cc1N [2,4-diaminotoluene]
Result of SCGE experiments (in words) [1]: negative results

CC(=O)Nc1ccc2c(c1)Cc1ccccc1-2 [2-acetylaminofluorene]
Result of SCGE experiments (in words) [1]: negative results

c1ccc2c(c1)cc1ccc3cccc4ccc2c1c34 [B(a)P, benzo(a)pyrene]
P53 gene expression (RT-qPCR) Induced ([2]; HCC 1.2 cells, background 1): 1.50 ± 0.33 | P53 gene expression (RT-qPCR) Induced ([2]; Hep3B cells, background 0): 0 | P53 gene expression (RT-qPCR) Induced ([2]; HepG2 cells, background 1): 1.48 ± 0.18 | P53 gene expression (RT-qPCR) Induced ([2]; HepaRG cells, background 1): 0.87 ± 0.14 | P53 gene expression (RT-qPCR) Induced ([2]; HuH6 cells, background 1): 1.26 ± 0.01 | P53 gene expression (RT-qPCR) Induced ([2]; HuH7 cells, background 1): 1.13 ± 0.01 | P53 gene expression (RT-qPCR) Induced ([2]; JHH6 cells, background 1): 1.00 ± 0.03 | P53 gene expression (RT-qPCR) Induced ([2]; PLC/PRF cells, background 1): 0.89 ± 0.05 | P53 gene expression (RT-qPCR) Induced ([2]; SK-Hep1 cells, background 1): 1.04 ± 0.12 | P53 gene expression (RT-qPCR) Induced ([2]; SNU-398 cells, background 1): 1.03 ± 0.15 | P53 gene expression (RT-qPCR) Induced ([2]; SNU-449 cells, background 1): 0.95 ± 0.03 | P53 gene expression (RT-qPCR) Induced ([2]; WRL68 cells, background 1): 0.96 ± 0.03 | P53 protein expression (Western Blot) Induced ([3]; HCC 1.2 cells, background +, mutated p53): + | P53 protein expression (Western Blot) Induced ([3]; Hep3B cells, background −): − | p53 protein induction (in words) ([3]; HepG2, B(a)P treatment for 24 h): induced | P53 protein expression (Western Blot) Induced ([3]; HepG2 cells, background +): +++ | P53 protein expression (Western Blot) Induced ([3]; HepaRG cells, background +): + | p53 protein induction (in words) ([3]; HuH6, B(a)P treatment for 24 h): induced | P53 protein expression (Western Blot) Induced ([3]; HuH6 cells, background +): ++ | P53 protein expression (Western Blot) Induced ([3]; HuH7 cells, background +): + | P53 protein expression (Western Blot) Induced ([3]; JHH6 cells, background +): + | P53 protein expression (Western Blot) Induced ([3]; PLC/PRF cells, background +): + | P53 protein expression (Western Blot) Induced ([3]; SK-Hep1 cells, background +): + | P53 protein expression (Western Blot) Induced ([3]; SNU-398 cells, background +, mutated p53): + | P53 protein expression (Western Blot) Induced ([3]; SNU-449 cells, background +): + | P53 protein expression (Western Blot) Induced ([3]; WRL68 cells, background +): + | DNA migration in comet assay ([4]; primary liver cells, 50 µM, 3 h, statistically not analyzed, ref Monteith and Vanstone [1995]): increase of DNA migration | Sensitivity of primary hepatocytes compared with HepG2 ([4]; ref Wilkening et al. [2003]): no difference

OO [H2O2, hydrogen peroxide]
Sensitivity towards H2O2-induced DNA damage [5]: by far less sensitive

N-nitrosodimethylamine [NDMA]
% DNA in tail [6]: 0.61 ± 0.35 0.69 ± 0.48 0.77 ± 0.60 3.01 ± 2.11 % | Result of SCGE experiments (in words) [6]: induction of DNA damage was found | % DNA in tail [7]: 0.46 ± 0.16 0.70 ± 0.42 0.59 ± 0.24 0.37 ± 0.34% | % DNA in tail [8]: 1.73 ± 2.62 2.91 ± 1.45 6.86 ± 1.74* 13.1 ± 4.41 % | Doses required to cause significant effects in SCGE assays [9]: ≥ 100 mM | Number of the twelve lines sensitive towards the compound [9]: five | % DNA in tail [10]: 1.77 ± 1.64 16.3 ± 4.52* 17.1 ± 3.64* 8.87 ± 0.30 % | % DNA in tail [11]: 0.23 ± 0.16 0.52 ± 0.24 0.54 ± 0.11 0.15 ± 0.03% | % DNA in tail [5]: 0.96 ± 0.59 1.47 ± 0.10 1.41 ± 1.04 5.09 ± 0.52 % | Result of SCGE experiments (in words) [5]: detected | % DNA in tail [12]: 0.43 ± 0.22 1.03 ± 0.74 0.93 ± 0.05 0.12 ± 0.01% | % DNA in tail [13]: 0.40 ± 0.14 0.65 ± 0.50 0.83 ± 0.53 0.28 ± 0.11% | % DNA in tail [14]: 1.17 ± 1.11 1.33 ± 0.66 1.69 ± 0.81 1.16 ± 0.53% | % DNA in tail [15]: 0.57 ± 0.21 0.62 ± 0.45 0.92 ± 0.45 0.61 ± 0.47% | % DNA in tail [16]: 0.35 ± 0.21 0.83 ± 0.26 1.12 ± 0.72 1.55 ± 0.49 % | % DNA in tail [17]: 1.15 ± 1.25 1.04 ± 0.33 1.65 ± 1.55 1.09 ± 0.33% | Sensitivity of primary hepatocytes compared with HepG2 [4]: substantially stronger effects

aflatoxin B1 [AFB1]
% DNA in tail [6]: 6.29 ± 1.57 2.76 ± 0.52 3.12 ± 0.70 5.81 ± 4.64% | % DNA in tail [7]: 0.60 ± 0.41 1.30 ± 0.37 1.13 ± 0.72 1.24 ± 0.88% | % DNA in tail [8]: 1.50 ± 1.09 3.35 ± 2.75 7.20 ± 3.1* 11.9 ± 4.30 % | Number of the twelve lines sensitive towards the compound [9]: Seven out of twelve lines | % DNA in tail [10]: 1.38 ± 0.48 3.74 ± 2.69 4.02 ± 1.22 8.75 ± 1.48 % | % DNA in tail [11]: 2.87 ± 2.05 2.04 ± 2.18 1.14 ± 1.95 3.37 ± 3.14% | % DNA in tail [5]: 4.16 ± 1.40 11.6 ± 1.50* 9.67 ± 2.17* 7.5 ± 1.76 % | Result of SCGE experiments (in words) [5]: detected | % DNA in tail [12]: 3.14 ± 1.66 2.32 ± 0.89 1.98 ± 0.41 1.72 ± 0.78% | % DNA in tail [13]: 2.50 ± 1.08 2.53 ± 1.68 3.06 ± 0.28 2.83 ± 0.61% | % DNA in tail [15]: 0.93 ± 0.86 1.35 ± 0.81 4.03 ± 1.93* 4.31 ± 0.92 % | % DNA in tail [16]: 1.02 ± 0.28 0.85 ± 0.41 2.96 ± 0.66* 5.17 ± 1.57 % | % DNA in tail [17]: 1.84 ± 1.44 4.57 ± 1.83 4.77 ± 1.75 6.68 ± 2.94 %
